Test results from ChEMBL document CHEMBL4808232, “Discovery of IDO1 inhibitors containing a decahydroquinoline, decahydro-1,6-naphthyridine, or octahydro-1H-pyrrolo[3,2-c]pyridine scaffold” (Bioorg Med Chem Lett, 2021).
The source made the active and inactive calls. No cut-off for these calls is given here.

Key:
[1] = molecular target: T1, Indoleamine 2,3-dioxygenase 1 (Homo sapiens, UniProt P14902); assay: Inhibition of IDO1 in human HeLa cells assessed as production of N-formylkynurenine using tryptophan as substrate in presence of inactivated fetal bovine serum; assay type: cell-based
[2] = molecular target: T1, Indoleamine 2,3-dioxygenase 1; assay: Inhibition of IDO1 in human whole blood; assay type: tissue-based
[3] = Unbound clearance in male Wistar Han rat at 0.05 mg/kg, iv; assay type: ADME, organism-based; settings: in vivo
[4] = Clearance in male Wistar Han rats at 0.05 mg/kg, iv; assay type: ADME, organism-based; settings: rat, in vivo
[5] = MRT in male Wistar Han rat at 0.05 mg/kg, iv; assay type: ADME, organism-based; settings: in vivo
[6] = molecular target: T1, Indoleamine 2,3-dioxygenase 1; assay: Inhibition of IDO1 in human whole blood assessed as unbound concentration; assay type: tissue-based
[7] = molecular target: Tryptophan 2,3-dioxygenase (Homo sapiens) (UniProt P48775); assay: Inhibition of TDO in human SW48 cells; assay type: cell-based
[8] = male, Wistar Han, read-out: MRT

T1 sequence (P14902 whole entry): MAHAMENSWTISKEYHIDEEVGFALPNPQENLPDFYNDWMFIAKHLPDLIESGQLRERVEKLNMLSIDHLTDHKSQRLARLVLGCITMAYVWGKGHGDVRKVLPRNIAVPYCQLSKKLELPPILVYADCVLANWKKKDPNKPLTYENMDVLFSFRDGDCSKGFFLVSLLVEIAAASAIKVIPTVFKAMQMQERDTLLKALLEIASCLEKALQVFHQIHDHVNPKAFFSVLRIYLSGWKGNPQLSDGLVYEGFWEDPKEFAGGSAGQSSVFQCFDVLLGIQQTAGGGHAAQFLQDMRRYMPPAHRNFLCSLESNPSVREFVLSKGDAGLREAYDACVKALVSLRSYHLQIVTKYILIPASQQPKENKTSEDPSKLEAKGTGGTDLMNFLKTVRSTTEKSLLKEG
Tryptophan 2,3-dioxygenase (Homo sapiens), sequence (P48775 whole entry, looked up): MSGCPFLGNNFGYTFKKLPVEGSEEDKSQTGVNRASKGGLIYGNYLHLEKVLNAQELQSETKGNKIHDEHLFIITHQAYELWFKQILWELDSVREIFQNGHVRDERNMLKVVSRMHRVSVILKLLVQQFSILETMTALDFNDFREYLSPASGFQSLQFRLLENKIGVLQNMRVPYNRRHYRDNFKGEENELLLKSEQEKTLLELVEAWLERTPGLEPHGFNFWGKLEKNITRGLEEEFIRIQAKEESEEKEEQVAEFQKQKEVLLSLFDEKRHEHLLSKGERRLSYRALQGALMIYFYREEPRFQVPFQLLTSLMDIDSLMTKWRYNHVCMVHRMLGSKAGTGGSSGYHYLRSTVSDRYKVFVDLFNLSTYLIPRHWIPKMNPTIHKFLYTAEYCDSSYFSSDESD

IC50 [1] | inhibition [7] | SMILES | further results
1 nM |  | C[C@@H](C(=O)Nc1ccc(F)cc1)C1CCC2C(CCCN2C(=O)c2cccc(Cl)c2)C1 (stereo in doubt; 3) [listing 1 of 2 here] | IC50 [2]: 32 nM; CL free [3]: 4427 mL/min/kg; clearance [4]: 51 mL/min/kg; MRT [5, 8]: 1.6 h; IC50 [6]: 0.13 nM
 | inactive | C[C@@H](C(=O)Nc1ccc(F)cc1)C1CCC2C(CCCN2C(=O)c2cccc(Cl)c2)C1 (stereo in doubt; 3) [listing 2 of 2 here] | 
1.9 nM |  | C[C@@H](C(=O)Nc1ccc(F)cc1)C1CCC2C(CCCN2C(=O)c2cccc(Cl)c2)C1 (stereo in doubt; 4) [listing 1 of 2 here] | 
 | inactive | C[C@@H](C(=O)Nc1ccc(F)cc1)C1CCC2C(CCCN2C(=O)c2cccc(Cl)c2)C1 (stereo in doubt; 4) [listing 2 of 2 here] | 
2.1 nM |  | C[C@@H](C(=O)Nc1ccc(F)cc1)C1CCC2C(CCCN2C(=O)c2cccc(Cl)c2)C1 (stereo in doubt; 5) [listing 1 of 2 here] | IC50 [2]: 312 nM
 | inactive | C[C@@H](C(=O)Nc1ccc(F)cc1)C1CCC2C(CCCN2C(=O)c2cccc(Cl)c2)C1 (stereo in doubt; 5) [listing 2 of 2 here] | 
2.3 nM |  | C[C@@H](C(=O)Nc1ccc(F)cc1)C1CCC2C(CCCN2C(=O)c2cccc(Cl)c2)C1 (stereo in doubt; 6) [listing 1 of 2 here] | CL free [3]: 4484 mL/min/kg; MRT ([5]; 0.05 mg/kg): 1.1 h
 | inactive | C[C@@H](C(=O)Nc1ccc(F)cc1)C1CCC2C(CCCN2C(=O)c2cccc(Cl)c2)C1 (stereo in doubt; 6) [listing 2 of 2 here] | 
2.4 nM |  | O=C(c1cccc(Cl)c1)N1CCCC2CC(C3(C(=O)Nc4ccc(F)cc4)CCC3)CCC21 (stereo in doubt; 7) [listing 1 of 2 here] | IC50 [2]: 123 nM; IC50 [6]: 0.98 nM
 | inactive | O=C(c1cccc(Cl)c1)N1CCCC2CC(C3(C(=O)Nc4ccc(F)cc4)CCC3)CCC21 (stereo in doubt; 7) [listing 2 of 2 here] | 
3 nM |  | O=C(c1cccc(Cl)c1)N1CCCC2CC(C3(C(=O)Nc4ccc(F)cc4)CCC3)CCC21 (stereo in doubt; 8) [listing 1 of 2 here] | 
 | inactive | O=C(c1cccc(Cl)c1)N1CCCC2CC(C3(C(=O)Nc4ccc(F)cc4)CCC3)CCC21 (stereo in doubt; 8) [listing 2 of 2 here] | 
7 nM |  | O=C(c1cccc(Cl)c1)N1CCCC2CC(C3(C(=O)Nc4ccc(F)cc4)CCC3)CCC21 (stereo in doubt; 9) [listing 1 of 2 here] | 
 | inactive | O=C(c1cccc(Cl)c1)N1CCCC2CC(C3(C(=O)Nc4ccc(F)cc4)CCC3)CCC21 (stereo in doubt; 9) [listing 2 of 2 here] | 
14 nM |  | O=C(c1cccc(Cl)c1)N1CCCC2CC(C3(C(=O)Nc4ccc(F)cc4)CCC3)CCC21 (stereo in doubt; 10) [listing 1 of 2 here] | 
 | inactive | O=C(c1cccc(Cl)c1)N1CCCC2CC(C3(C(=O)Nc4ccc(F)cc4)CCC3)CCC21 (stereo in doubt; 10) [listing 2 of 2 here] | 
107 nM |  | O=C(C1CC1)N1CCCC2CC(C3(C(=O)Nc4ccc(F)cc4)CCC3)CCC21 (stereo in doubt; 11) [listing 1 of 2 here] | 
 | inactive | O=C(C1CC1)N1CCCC2CC(C3(C(=O)Nc4ccc(F)cc4)CCC3)CCC21 (stereo in doubt; 11) [listing 2 of 2 here] | 
1.5 nM |  | O=C(C1CC1)N1CCCC2CC(C3(C(=O)Nc4ccc(F)cc4)CCC3)CCC21 (stereo in doubt; 12) [listing 1 of 2 here] | IC50 [2]: 15 nM; IC50 [6]: 0.86 nM
 | inactive | O=C(C1CC1)N1CCCC2CC(C3(C(=O)Nc4ccc(F)cc4)CCC3)CCC21 (stereo in doubt; 12) [listing 2 of 2 here] | 

IC50 [1] | inhibition [7] | SMILES | further results
19 nM |  | O=C(C1CC1)N1CCCC2CC(C3(C(=O)Nc4ccc(F)cc4)CCC3)CCC21 (stereo in doubt; 13) [listing 1 of 2 here] | 
 | inactive | O=C(C1CC1)N1CCCC2CC(C3(C(=O)Nc4ccc(F)cc4)CCC3)CCC21 (stereo in doubt; 13) [listing 2 of 2 here] | 
115 nM |  | O=C(C1CC1)N1CCCC2CC(C3(C(=O)Nc4ccc(F)cc4)CCC3)CCC21 (stereo in doubt; 14) [listing 1 of 2 here] | 
 | inactive | O=C(C1CC1)N1CCCC2CC(C3(C(=O)Nc4ccc(F)cc4)CCC3)CCC21 (stereo in doubt; 14) [listing 2 of 2 here] | 
1.6 nM |  | Cc1nccc(N2CCCC3CC(C4(C(=O)Nc5ccc(F)cc5)CCC4)CCC32)n1 (stereo in doubt; 15) [listing 1 of 2 here] | IC50 [2]: 10 nM; CL free [3]: 1309 mL/min/kg; MRT [5, 8]: 1.7 h; IC50 [6]: 0.29 nM
 | inactive | Cc1nccc(N2CCCC3CC(C4(C(=O)Nc5ccc(F)cc5)CCC4)CCC32)n1 (stereo in doubt; 15) [listing 2 of 2 here] | 
4.2 nM |  | Cc1nccc(N2CCCC3CC(C4(C(=O)Nc5ccc(F)cc5)CCC4)CCC32)n1 (stereo in doubt; 16) [listing 1 of 2 here] | CL free [3]: 1884 mL/min/kg; MRT ([5]; 0.05 mg/kg): 1.8 h
 | inactive | Cc1nccc(N2CCCC3CC(C4(C(=O)Nc5ccc(F)cc5)CCC4)CCC32)n1 (stereo in doubt; 16) [listing 2 of 2 here] | 
32 nM |  | Cc1nccc(N2CCCC3CC(C4(C(=O)Nc5ccc(F)cc5)CCC4)CCC32)n1 (stereo in doubt; 17) [listing 1 of 2 here] | 
 | inactive | Cc1nccc(N2CCCC3CC(C4(C(=O)Nc5ccc(F)cc5)CCC4)CCC32)n1 (stereo in doubt; 17) [listing 2 of 2 here] | 
5.2 nM |  | Cc1nccc(N2CCCC3CC(C4(C(=O)Nc5ccc(F)cc5)CCC4)CCC32)n1 (stereo in doubt; 18) [listing 1 of 2 here] | 
 | inactive | Cc1nccc(N2CCCC3CC(C4(C(=O)Nc5ccc(F)cc5)CCC4)CCC32)n1 (stereo in doubt; 18) [listing 2 of 2 here] | 
1.9 nM |  | O=C(Nc1ccc(F)cc1)C1(C2CCC3C(CCCN3c3ccnc(C(F)(F)F)n3)C2)CCC1 (stereo in doubt; 19) [listing 1 of 2 here] | CL free [3]: 13321 mL/min/kg; MRT [5, 8]: 1.9 h
 | inactive | O=C(Nc1ccc(F)cc1)C1(C2CCC3C(CCCN3c3ccnc(C(F)(F)F)n3)C2)CCC1 (stereo in doubt; 19) [listing 2 of 2 here] | 
1.9 nM |  | O=C(Nc1ccc(F)cc1)C1(C2CCC3C(CCCN3c3ccnc(C(F)(F)F)n3)C2)CCC1 (stereo in doubt; 20) [listing 1 of 2 here] | IC50 [2]: 48 nM; CL free [3]: 9879 mL/min/kg; MRT ([5]; 0.05 mg/kg): 2.7 h; IC50 [6]: 0.1 nM
 | inactive | O=C(Nc1ccc(F)cc1)C1(C2CCC3C(CCCN3c3ccnc(C(F)(F)F)n3)C2)CCC1 (stereo in doubt; 20) [listing 2 of 2 here] | 
2.6 nM |  | O=C(Nc1ccc(F)cc1)C1(C2CCC3C(CCCN3c3ccnc(C(F)(F)F)n3)C2)CCC1 (stereo in doubt; 21) [listing 1 of 2 here] | CL free [3]: 7183 mL/min/kg; MRT ([5]; 0.05 mg/kg): 2.9 h
 | inactive | O=C(Nc1ccc(F)cc1)C1(C2CCC3C(CCCN3c3ccnc(C(F)(F)F)n3)C2)CCC1 (stereo in doubt; 21) [listing 2 of 2 here] | 
3.2 nM |  | O=C(Nc1ccc(F)cc1)C1(C2CCC3C(CCCN3c3ccnc(C(F)(F)F)n3)C2)CCC1 (stereo in doubt; 22) [listing 1 of 2 here] | CL free [3]: 5951 mL/min/kg; MRT ([5]; 0.05 mg/kg): 3.5 h
 | inactive | O=C(Nc1ccc(F)cc1)C1(C2CCC3C(CCCN3c3ccnc(C(F)(F)F)n3)C2)CCC1 (stereo in doubt; 22) [listing 2 of 2 here] | 

IC50 [1] | inhibition [7] | SMILES | further results
3.9 nM |  | O=C(CN1CCC2C(CCCN2C(=O)c2cccc(Cl)c2)C1)Nc1ccc(F)cc1 (stereo in doubt; 23) | 
2 nM |  | O=C(CN1CCC2C(CCCN2C(=O)c2cccc(Cl)c2)C1)Nc1ccc(F)cc1 (stereo in doubt; 24) | CL free [3]: 1401 mL/min/kg; clearance [4]: 61 mL/min/kg; MRT [5, 8]: 1.6 h
3.7 nM |  | CC(C(=O)Nc1ccc(Cl)cc1)N1CCC2C(CCCN2C(=O)OC2CC2)C1 (stereo in doubt; 25) | IC50 [2]: 293 nM
9.1 nM |  | CC(C(=O)Nc1ccc(Cl)cc1)N1CCC2C(CCCN2C(=O)OC2CC2)C1 (stereo in doubt; 26) | 
32 nM |  | CC(C(=O)Nc1ccc(Cl)cc1)N1CCC2C(CCCN2C(=O)OC2CC2)C1 (stereo in doubt; 28) | 
302 nM |  | Cc1nccc(N2CCCC3CN(C(C)C(=O)Nc4ccc(Cl)cc4)CCC32)n1 (stereo in doubt; 29) | 
40 nM |  | Cc1nccc(N2CCCC3CN(C(C)C(=O)Nc4ccc(Cl)cc4)CCC32)n1 (stereo in doubt; 30) | 
2.9 nM |  | Cc1nccc(N2CCCC3CN(C(C)C(=O)Nc4ccc(Cl)cc4)CCC32)n1 (stereo in doubt; 31) | IC50 [2]: 130 nM
12 nM |  | Cc1nccc(N2CCCC3CN(C(C)C(=O)Nc4ccc(Cl)cc4)CCC32)n1 (stereo in doubt; 32) | CL free [3]: 2381 mL/min/kg; clearance [4]: 31 mL/min/kg; MRT [5, 8]: 2.9 h
15 nM |  | CC(C(=O)Nc1ccc(Cl)cc1)N1CCC2C(CCCN2c2ccnc(C(F)(F)F)n2)C1 (stereo in doubt; 33) | CL free [3]: 8439 mL/min/kg; clearance [4]: 19 mL/min/kg; MRT [5, 8]: 3 h
3.6 nM |  | CC(C(=O)Nc1ccc(Cl)cc1)N1CCC2C(CCCN2c2ccnc(C(F)(F)F)n2)C1 (stereo in doubt; 34) | IC50 [2]: 809 nM; CL free [3]: 13004 mL/min/kg
430 nM |  | CC(C(=O)Nc1ccc(Cl)cc1)N1CCC2C(CCCN2c2ccnc(C(F)(F)F)n2)C1 (stereo in doubt; 35) | 
5.4 nM |  | CC(C(=O)Nc1ccc(Cl)cc1)N1CCC2C(CCCN2c2ccnc(C(F)(F)F)n2)C1 (stereo in doubt; 36) | IC50 [2]: 1000 nM; CL free [3]: 27767 mL/min/kg; MRT ([5]; 0.05 mg/kg): 3.7 h
11 nM |  | CC(C(=O)Nc1ccc(Cl)cc1)N1CCC2C(CCN2C(=O)OC2CC2)C1 (stereo in doubt; 37) | 
16 nM |  | CC(C(=O)Nc1ccc(Cl)cc1)N1CCC2C(CCN2C(=O)OC2CC2)C1 (stereo in doubt; 38) | CL free [3]: 2394 mL/min/kg; MRT [5, 8]: 1.5 h
184 nM |  | CC(C(=O)Nc1ccc(Cl)cc1)N1CCC2C(CCN2C(=O)OC2CC2)C1 (stereo in doubt; 39) | CL free [3]: 664 mL/min/kg; MRT ([5]; 0.05 mg/kg): 2.8 h
1150 nM |  | CC(C(=O)Nc1ccc(Cl)cc1)N1CCC2C(CCN2C(=O)OC2CC2)C1 (stereo in doubt; 40) | 
1050 nM |  | Cc1nccc(-n2ncc3c2CCN(C(C)C(=O)Nc2ccc(Cl)cc2)C3)n1 (stereo in doubt; 41) | 
27700 nM |  | Cc1nccc(-n2ncc3c2CCN(C(C)C(=O)Nc2ccc(Cl)cc2)C3)n1 (stereo in doubt; 42) | 
